These results are taken from PubChem BioAssay (NCI).

The structures appear in SMILES notation. Several values for one entry are separate records, joined by “and”; a condition that tells them apart may be missing. Equal entries are not always repeated.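 The compound was tested at five concentrations on cells cultured in 96-well plates, with a 48-hour exposure period. GI50 marks 50% less growth. TGI: total growth inhibition.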 Where a SMILES comes first, the peptide text is derived from it. [ ]: non-standard residue; d: D form. The star is where a group is joined. ξ: configuration not given here. NMeY = CN[C@@H](Cc1ccc(O)cc1)C(=O)O; Cbz = O=C(OCc1ccccc1)*; ξA = CC(N)C(=O)O

Common to all, as to experiment: NCI-60 cell line screen, 48 h
For test [1], the system named is OVCAR-5 ovarian.
For test [2], the system named is MOLT-4 leukemia.
Test [3] concerns PC-3 prostate.
The test system of test [4] is EKVX NSCLC.
Test [5] deals with SK-MEL-2 melanoma.
The subject of test [6] is M14 melanoma.
For test [7], the system named is T-47D breast.
Test [8] relates to SNB-19 CNS.
In test [9] the test system is IGROV1 ovarian.
Test [10] deals with A498 renal.

As for `C/C(=N\N=C(N)N)c1c(C(=O)OCCCCCCOC(=O)c2nc3sccn3c2/C(C)=N/N=C(N)N)nc2sccn12`, the TGI in test [1], in test [2], in test [3], in test [4], in [5] and in test [6] was over 100 µM each time. The TGI was 42.5 µM in test [7], over 100 µM in test [8], over 100 µM in test [9] and over 100 µM in [10].
Regarding `COC(=O)Cc1c(C2=Nc3ccccc3C2(O)CC(=O)OC)[nH]c2ccccc12` (stereo not drawn), the TGI was over 100 µM in [1]; 71.2 µM in test [2]; over 100 µM in test [3]; over 100 µM in [4]; over 100 µM in [5]; over 100 µM in test [6]. Besides, the TGI in test [7], in test [8], in test [9] and in [10] was over 100 µM each time.
For `O=C(C[C@@H]1NCCC[C@H]1O)Cn1cnc2cc(Br)c(Cl)cc2c1=O`, the TGI was 0.0883 µM in test [1]; over 100 µM in test [2]; 1.4 µM in test [3]; 0.803 µM in [4]; 0.05 µM in test [5]; 0.0821 µM in test [6]. Also, the TGI worked out at 0.082 µM in test [7], 0.484 µM in test [8], 0.158 µM in [9] and 0.316 µM in test [10].
`O=C1c2cc3c(cc2CC12Cc1cc4c(cc1C2)CCC4)CCC3`: the TGI in [1], in test [2], in test [3], in test [4], in test [5] and in [6] was over 100 µM each time. Also, the TGI in test [7], in [8], in test [9] and in test [10] was over 100 µM in each case.
`CCOC(=O)C1C/C(C)=C(/C)SCCCS1` (stereo not drawn): the TGI in test [1], in [2], in test [3], in test [4], in test [5] and in test [6] was over 100 µM in each case. Besides, the TGI in [7], in test [8], in [9] and in test [10] was over 100 µM in each case.
With `Cc1ccc(Nc2nc(=O)[nH]c(=O)[nH]2)cc1N`, the TGI in [1], in test [3], in test [4], in [5], in test [6] and in test [7] was over 100 µM each time. Further, the TGI in test [8], in test [9] and in [10] was over 100 µM each time.
In the case of `COc1ccc(C[C@@H](C(=O)NCC(N)=O)N(C)C(=O)[C@@H]2CCCN2C(=O)[C@H](CC(C)C)NC(=O)C(C)NC(=O)OCc2ccccc2)cc1` (stereo partly drawn) (Cbz-[ξA]LP[NMeY](Me)G-NH2), the TGI in [1], in test [2], in test [3], in test [4], in test [5] and in test [6] was over 100 µM in each case. Moreover, the TGI in [7], in test [8], in test [9] and in [10] was over 100 µM each time.
As for `Oc1ccc2ccccc2c1-c1nnc(CCCCCCCCc2nnc(-c3c(O)ccc4ccccc34)o2)o1`, the GI50 in [1] is 19.9 µM; in test [2], 81.2 nM; in test [3], 1550 nM; in test [4] it was 6.7 µM; in test [5], 4.88 µM; in [6], 4.77 µM. For the same compound, the GI50 in test [7] was 1670 nM; in test [8], 17.6 µM; in [9] it was 11.6 µM; in [10], 14.2 µM. The TGI in test [1] is 25 µM and > 100 µM; in [3] it was 22.4 µM and 50.6 µM; in test [4], 25 µM and > 100 µM; in test [5], 25 µM and > 100 µM; in [6], 25 µM and 55.1 µM; in test [7], 25 µM and > 100 µM. The TGI in [8] was 25 µM and > 100 µM; in test [9], 25 µM and 98.6 µM; in [10], 25 µM and 41 µM.
Regarding `O=C1/C(=C/c2ccccc2S)N=C(c2ccccc2)N1c1ccc2c(c1)Sc1cc(N3C(=O)/C(=C/c4ccccc4S)N=C3c3ccccc3)ccc1N2`, the TGI stood at 35.6 µM in test [1]; 39.7 µM in [2]; 46.9 µM in [3]; 41.6 µM in [4]; 44.8 µM in [5]; 35 µM in test [6]. Further, the TGI in test [7] came to 51.3 µM; in [8] it was 30.4 µM; in test [9], 29.1 µM; in test [10] it was 35.4 µM.
For the compound `CCOC(=O)CCC(NC(=O)OCc1ccccc1)C(=O)NNC(=O)OC(C)(C)C` (stereo not drawn), the TGI in test [1], in [2], in test [3], in test [4], in test [5] and in test [6] was over 100 µM each time. Besides, the TGI in [7], in [8], in test [9] and in [10] was over 100 µM each time.
On to `COc1cc(C2C(Cl)C(=O)N2c2ccc(Br)cc2)cc(I)c1O` (stereo not drawn), for which the TGI in test [1], in test [2], in test [3], in test [4], in test [5] and in [6] was over 100 µM each time. Further, the TGI in test [7] was over 100 µM; in test [8], over 100 µM; in test [9], 24.6 µM; in test [10], over 100 µM.
Regarding `CCOC(=O)c1cc(-c2ccc(OC)c(OC)c2)c[nH]1`, the TGI in test [1], in test [2], in [3], in test [4], in test [5] and in test [6] was over 10 µM in each case. The TGI in test [7], in [8], in test [9] and in [10] was over 10 µM throughout.
